# Test results from patent US12102685B2, “Immodulator peptides covalently modified with small molecules” (priority 2020, dated 2024).
# Marks after values point to notes of the source that are not given here. Peptide text beside a SMILES is read from it.
# What was measured:
# [1] = NTA-metal-affinity ELISA (Experiment x2A); format: binding
# Experimental: The NTA-metal-affinity ELISA assay was performed using 96-well NTA-metal-coated plates readily available from commercial sources such as Qiagen (Germantown, MD). The NTA was charged with ferrous or ferric iron, zinc, copper, calcium, vanadium, ruthenium, cobalt, titanium, manganese or other metals. 400 ng of immodulator peptide IM3N1 in PBS buffer was added per plate. After incubation at room temperature for 60 minutes, excess peptide was washed off and peptide was detected by ELISA using an anti-immodulator rabbit primary antibody (A2501) and horseradish peroxidase conjugated to a secondary anti-rabbit antibody (arbitrary units)*vs EDTA control: • EDTA (no metal): 0.047±0.001 • Fe2+ (Ferrous): 0.844±0.026 (p<0.001*) • Fe3+ (Ferric): 0.848±0.011 (p<0.001*) • Zn2+ (Zinc): 0.194±0.089 (p<0.05*) • Cu2+ (Copper): 0.229±0.086 (p<0.05*)
# rat scald model [2] = assay: Rat scald model, N-terminally modified nephrilin-iron complexes (x5B); format: in vivo, Sprague Dawley rats; conditions: male rats, burn, 2 mg/kg peptide complexed with ferric iron, sc days 1-7
# Experimental: Effect of N-terminal modifications on the efficacy of nephrilin IM3N1 peptide in the rat scald model. In this study, five nephrilin-iron binary complexes were compared: IM3N1 (unmodified) and the following: IM3N1vlp (valproic acid), IM3N1dec (decanoic acid), IM3N1fen (fenofibric acid), and IM3N1ibu (ibuprofen). Adult male Sprague Dawley rats (300 gm, Charles River Laboratories, Wilmington, MA, USA) were injected with peptides formulated with equimolar metal ferric iron once daily by subcutaneous bolus injection, days 1-7.
# Treatment group sizes were (n=6) for each group: group S=sham-treated; group B=burn+vehicle; group N1=burn+2 mg/kg nephrilin IM3N1; group N1V=burn+2 mg/kg IM3N1vlp; group N1D=burn+2 mg/kg IM3N1dec; group N1F=burn+2 mg/kg IM3N1fen; group N1I=burn+2 mg/kg IM3N1ibu. The first dose was administered after completion of the scald procedure. Injection volume was 400 uL. Control animals received the same volume of vehicle. Rat scald model was performed and measurements taken as described in Experiment x5A.
# rat scald model [3] = assay: Rat scald model, study effects (Table x7A); format: in vivo; conditions: burn + IM3N1 4 mg/kg sc once daily for seven days; n=3
# burn wound length = assay: Post-burn wound healing study (x8A); format: in vivo, rats; conditions: burn-group treatment as labelled (4 mg/kg), then vehicle weeks 2-6
# Experimental: Experiment x8A. Male rats treated with 4 mg/kg nephrilin peptide IM3N1 for 2 weeks in Example 5 were subsequently treated 3× weekly (Mon-Wed-Fri) for 4 weeks with vehicle (n=12) or with 1 mg/kg IM3vlp peptide (n=12) by subcutaneous bolus injection (200 uL volume). Longitudinal wound length between the hairlines was measured at 6 weeks, and this value was corrected for nose-to-ear length and width of each animal. The mean resulting value (in arbitrary units) is shown below.
# STING = assay: THP1-Dual monocyte reporter, STING readout (x4A); format: cell-based
# Experimental: Immune modulation functions of immodulator peptides were measured using the monocyte reporter cell line THP1-Dual (Invivogen, San Diego, CA), which provides convenient readouts for STING and NF-kappa-B pathways. Optionally, succinic acid, cytokine and chemokine production were also measured. THP1-Dual cell line was obtained from Invivogen. Cells were grown in a T-75 flask in RPMI Medium containing 20% fetal bovine serum, blasticidin ([…]), zeocin ([…]) and penicillin-streptomycin at 37° C. in a humidified, 5% CO2 incubator. Cells ([…], 8,000 cells/well) were plated in a 96-well plate and incubated overnight at 37 °C in a humidified, 5% CO2 incubator. Next day, […] of compounds were added (quadruplicate wells). After 24 hour incubation with the compound, supernatants were harvested and stored at 4° C. prior to assay.
# Each cell supernatant was assayed in quadruplicate. 20 uL of supernatant was used to measure NF-kappa-B (NFkB) and
# STING activity using reagents QuantiBlu and QuantiLuc respectively, according to the manufacturer's recommendations (Invivogen, San Diego, CA). Succinic acid was measured by using a kit from Megazyme Inc (Cambridge, MA). Control value of activity was set to 100 in each assay. […] PAM3C=25 ng/ml PAM3CSK4 (TLR1/2 inducer); Poly(I:C)=10 ug/ml (TLR3 inducer); PAM2C=25 ng/ml PAM2CSK4 (TLR2/6 inducer); KIN14=4 uM KIN-1400 (RIG-I inducer); cytB=1 uM cytosporone B (Nur77 inducer); C-178=1 uM STING inhibitor; NFkBi=50 ug/ml NFkB inhibitor peptide; SB2021=10 uM p38MAPK inhibitor; *p<0.05, **p<0.01 vs IM3 control; #p<0.01 vs “no inducer” control; SUCC=succinic acid; nd=not done; Peptide was added to cells at 400 nM.
# Peptides were added to cells at 400 nM. […]
# [4] = IM3 / FITC-PI(4,5)P2 binding on metal-charged NTA plates (x9C)
# Experimental: NTA-coated 96-well plates were charged with either 500 uM zinc chloride or 500 uM ferric chloride and washed. Immodulator peptide IM3 (100 ng/well) and FITC-PI(4,5)P2 (50 ng/well) were added, with or without 2 ug/well cold PPI, and incubated at room temperature for 60 minutes. The plate was washed and counted in a fluorometer.
compound,measurement,setting,value
RGVTEDYLRLETLVQKVVSKGFYKKKQCRPSKGRKRGFCW [IM3N1],"peptide bound, ELISA",[1]; Cu2+ (Copper),0.229±0.086 arbitrary units
same,"peptide bound, ELISA","[1]; EDTA (no metal), 400 ng peptide",0.047±0.001 arbitrary units
same,"peptide bound, ELISA",[1]; Fe2+ (Ferrous),0.844±0.026 arbitrary units
same,"peptide bound, ELISA",[1]; Fe3+ (Ferric),0.848±0.011 arbitrary units
same,"peptide bound, ELISA",[1]; Zn2+ (Zinc),0.194±0.089 arbitrary units
same,1: early inflammation (24-hr plasma IL-6),rat scald model [2],38.5 ± 27.8 pg/mL
same,2a: 14-day plasma inflammasome marker IL18,rat scald model [2],220.4 ± 32.1 pg/mL
same,2b: 14-day plasma inflammasome marker IL1b,rat scald model [2],52.9 ± 7.8 pg/mL
same,3a: 14-day plasma hyperangiogenesis marker VEGF-A,rat scald model [2],37.8 ± 15.3 pg/mL
same,3b: 14-day plasma hyperangiogenesis marker CCL5,rat scald model [2],248.3 ± 29.7 pg/mL
same,3c: 14-day plasma hyperangiogenesis marker CXCL5,rat scald model [2],855 ± 233 pg/mL
same,"4: glycemic control, 14-day GTT (AUC)",rat scald model [2],136.4 ± 69.2 mg·dL·h
same,"5: kidney function, 14-day plasma creatinine",rat scald model [2],0.31 ± 0.09 mg/dL
same,"6: systemic oxidative stress, 14-day plasma OHDG",rat scald model [2],374 ± 187 pg/mL
same,7: weight loss (slope),rat scald model [2],2.99 ± 0.53
same,3d: hyperangiogenesis marker PctRedPix,rat scald model [2],6.53 ± 3.16
same,Glycemic Control (GTT AUC),rat scald model [3],69.0 ± 18.1 mg·dL·h
same,"Kidney Function (eGFR, calculated)",rat scald model [3],1.29 ± 0.32
same,Lean Body Mass (DEXA),rat scald model [3],328.5 ± 5.1
same,Urinary 8-isoprostate,rat scald model [3],4.53 ± 1.21 ng/pg cystatin
same,corrected longitudinal wound length at 6 weeks,burn wound length,131.3 ± 18.6 arbitrary units
N=C(N)NCCC[C@H](NC(=O)CNC(=O)[C@H](CCCCN)NC(=O)[C@H](CO)NC(=O)[C@@H]1CCCN1C(=O)[C@H](CCCNC(=N)N)NC(=O)[C@H](CS)NC(=O)[C@H](CCC(N)=O)NC(=O)[C@H](CCCCN)NC(=O)[C@H](CCCCN)NC(=O)[C@H](CCCCN)NC(=O)[C@H](Cc1ccc(O)cc1)NC(=O)[C@H](Cc1ccccc1)NC(=O)CNC(=O)[C@H](CCCCN)NC(=O)[C@@H](N)CCCCN)C(=O)N[C@@H](CCCCN)C(=O)N[C@@H](CCCNC(=N)N)C(=O)NCC(=O)N[C@@H](Cc1ccccc1)C(=O)N[C@@H](CS)C(=O)N[C@@H](Cc1c[nH]c2ccccc12)C(=O)O [IM3] (H-KKGFYKKKQCRPSKGRKRGFCW-OH; N-terminus and C-terminus assumed),STING,STING; peptide 400 nM + KIN1400 (= 100),100
same,STING,STING; peptide 400 nM + KIN1400 + C-178 1 uM,81.1**
same,STING,STING; peptide 400 nM + KIN1400 + NFkBi 50 ug/ml,105.0
same,STING,STING; peptide 400 nM + KIN1400 + SB2021 10 uM,75.6**
same,STING,STING; peptide 400 nM + KIN1400 + cytB 1 uM,87.5*
same,STING,STING; peptide 400 nM + PAM2C (= 100),100
same,STING,STING; peptide 400 nM + PAM2C + C-178 1 uM,62.0**
same,STING,STING; peptide 400 nM + PAM2C + NFkBi 50 ug/ml,119.1*
same,STING,STING; peptide 400 nM + PAM2C + SB2021 10 uM,18.9**
same,STING,STING; peptide 400 nM + PAM2C + cytB 1 uM,96.5
same,STING,STING; peptide 400 nM + PAM3C + C-178 1 uM,566**
same,STING,STING; peptide 400 nM + PAM3C + NFkBi 50 ug/ml,1294**
same,STING,STING; peptide 400 nM + PAM3C + SB2021 10 uM,274**
same,STING,STING; peptide 400 nM + PAM3C + cytB 1 uM,1318**
same,STING,"STING; peptide 400 nM + PAM3C, control = 100",1474
same,STING,"STING; peptide 400 nM, no inducer, control = 100",91**
same,"fluorescence, FITC-PI(4,5)P2","[4]; Ferric iron, cold PI(3)P1 2 ug/well",78.5 ± 5.8
same,"fluorescence, FITC-PI(4,5)P2","[4]; Ferric iron, cold PI(3,5)P2 2 ug/well",100.0 ± 3.2
same,"fluorescence, FITC-PI(4,5)P2","[4]; Ferric iron, no cold PPI",80.1 ± 1.8
same,"fluorescence, FITC-PI(4,5)P2","[4]; No metal, no cold PPI, IM3 100 ng/well",0.0 ± 0.2
same,"fluorescence, FITC-PI(4,5)P2","[4]; Zinc, no cold PPI",2.2 ± 0.3
